System: Dahl salt-sensitive (Dahl/SS) male rats
Experiment: Transthoracic echocardiography of cardiac structure and function in hypertensive Dahl/SS rats
Assay type: in vivo, rat
Conditions: for E/A (ratio E wave to A wave) / EF (ejection fraction) / FS (fractional shortening) / IVS; d (inter-ventricular septum, diastole) / IVS; s (inter-ventricular septum, systole) / LA (left atrium diameter) / LV Mass (left ventricular mass) / LV Vol; d (left ventricular volume, diastole) / LV Vol; s (left ventricular volume, systole) / LVPW; d (left ventricular posterior wall, diastole) / LVPW; s (left ventricular posterior wall, systole) / RWT (relative wall thickness): HT Dahl/SS rats on high salt diet, at 6 weeks, mean ± SEM
Method: A total of 29 adult Dahl salt-sensitive (Dahl/SS) male rats with an initial weight of 150 to 200 g were included in the study. Rats were purchased from Charles River Laboratories (USA) and housed in a room with a 12/12-hour light cycle, a temperature of 21° C., and a humidity of 55%. Rats were maintained on a normal salt diet up to seven weeks of age. Twenty-two Dahl/SS were then randomly switched to a high salt diet for 6 weeks to induce hypertension, whilst 7 rats were kept normotensive (NT) on normal salt diet. Drinking water and food was provided ad libitum.
After 2 weeks of high salt diet, 15 hypertensive (HT) rats were started on treatment with proANP31-67. Rats treated with proANP31-67 received one of two dosages: 50 ng/kg/day (n=8) or 100 ng/kg/day (n=7). A total of 14 rats received only vehicle: control rats on a normal salt diet (n=7); and HT rats on a high salt diet (n=7). Rats were randomly assigned to the 3 groups (i.e. control normal salt; high salt untreated; high salt plus treatment).
Drug or vehicle was delivered via Alzet osmotic mini-pumps (Model 2004; mean pumping rate […], mean fill volume […]) implanted subcutaneously (as instructed by the manufacturer) for 28 days. Animals were treated with buprenorphine (0.05 mg/kg s.c.) as analgesic 30 minutes before and up to 1 day following implantation of pumps.
Cardiac function was assessed by transthoracic echocardiography using a VEVO 2100 high resolution in vivo imaging system from VisualSonics (Canada). Briefly, animals were maintained under anesthesia (1.5-2% isoflurane mixed with oxygen) on a pre-warmed ECG transducer pad with body temperature and ECG monitored. Measurements were made with an MS250 transducer, frequency set at 24 MHz. M-mode in the parasternal long axis view was performed to assess the function and dimension of the left ventricle and left atrium. LVEF was calculated as 100×((LV Vol;d−LV Vol;s)/LV Vol;d). LV mass was estimated by the formula: 1.053×((LVID;d+LVPW;d+IVS;d)3−LVID;d3). Relative wall thickness (RWT) was calculated as 2×LVPW;d/LVID;d.21 Normal geometry of the heart was defined as the 95th percentile for both LV Mass and RWT of the NT group. E and A waves in left ventricular filling velocities were assessed via pulsed-wave Doppler in a parasternal long axis view. Echocardiographic analysis were performed by an operator blinded to treatment group.
Experiments were performed as described above in Example 1, using a group of 8 Dahl/SS rats which, at 7 weeks of age, were switched to a high salt diet as described above. After 2 weeks of high salt diet, this group was started on proANP31-67 treatment. The rats were administered proANP31-67 at a renal sub-therapeutic dosage of 25 ng/kg/day.

[1] = 50 or 100 ng/kg/day s.c. (pooled) for 28 days

Substance: proANP31-67: Human proANP31-67, linear peptide fragment of proANP consisting of SEQ ID NO: 1; also known as vessel dilator, VSDL (EVVPPQVLSEPNEEAGAALSPLPEVPPWTGEVSPAQR; listed as Homo sapiens)
- E/A (ratio E wave to A wave) (25 ng/kg/day s.c.): 1.47 ± 0.08
- EF (ejection fraction) (25 ng/kg/day s.c.): 79.6 ± 1.6%
- FS (fractional shortening) (25 ng/kg/day s.c.): 49.89 ± 1.7%
- IVS; d (inter-ventricular septum, diastole) (25 ng/kg/day s.c.): 1.67 ± 0.03 mm
- IVS; s (inter-ventricular septum, systole) (25 ng/kg/day s.c.): 3.12 ± 0.10 mm
- LA (left atrium diameter) (25 ng/kg/day s.c.): 4.13 ± 0.17 mm
- LV Mass (left ventricular mass) (25 ng/kg/day s.c.): 872.5 ± 22.5 mg
- LV Vol; d (left ventricular volume, diastole) (25 ng/kg/day s.c.): 288.5 ± 15.4 µL
- LV Vol; s (left ventricular volume, systole) (25 ng/kg/day s.c.): 59.44 ± 6.2 µL
- LVPW; d (left ventricular posterior wall, diastole) (25 ng/kg/day s.c.): 1.67 ± 0.04 mm
- LVPW; s (left ventricular posterior wall, systole) (25 ng/kg/day s.c.): 2.81 ± 0.08 mm
- RWT (relative wall thickness) (25 ng/kg/day s.c.): 0.46 ± 0.02
- E/A (ratio E wave to A wave) [1]: 1.6 ± 0.1
- EF (ejection fraction) [1]: 78.2 ± 1.9%
- FS (fractional shortening) [1]: 48.7 ± 1.8%
- IVS; d (inter-ventricular septum, diastole) [1]: 1.7 ± 0.0 mm
- IVS; s (inter-ventricular septum, systole) [1]: 3.1 ± 0.0 mm
- LA (left atrium diameter) [1]: 4.2 ± 0.1 mm
- LV Mass (left ventricular mass) [1]: 891.7 ± 12.9 mg
- LV Vol; d (left ventricular volume, diastole) [1]: 265.1 ± 12.4 µL
- LV Vol; s (left ventricular volume, systole) [1]: 58.0 ± 6.3 µL
- LVPW; d (left ventricular posterior wall, diastole) [1]: 1.8 ± 0.0
- LVPW; s (left ventricular posterior wall, systole) [1]: 2.9 ± 0.1
- RWT (relative wall thickness) [1]: 0.52 ± 0.02
- diastolic function as defined by E/A ratio (HT Dahl/SS rats, 25 ng/kg/day s.c., FIG. 5C): preserved diastolic function
- change in LA diameter (HT Dahl/SS rats, 25 ng/kg/day s.c., FIG. 5D): much smaller change in LA diameter than the untreated HT group
- proportion of treated HT rats displaying normal cardiac geometry (HT Dahl/SS rats, 25 ng/kg/day s.c., FIG. 5E): all
- E/A ratio, relative fold change to NT controls (HT Dahl/SS rats, 50 or 100 ng/kg/day s.c. (pooled), FIG. 1C): preserved
- left atrium diameter larger compared to NT rats (HT Dahl/SS rats, 50 or 100 ng/kg/day s.c. (pooled), FIG. 1D): about 10%
- proportion of treated HT rats showing normal geometry (LV mass and RWT) (HT Dahl/SS rats, 50 or 100 ng/kg/day s.c. (pooled), FIG. 1E): approximately 70%

Reference: US20230173029A1, “TREATMENT OF CARDIAC REMODELLING” (UNIVERSITETET I OSLO, priority 2020, published 2023)
